Assay results taken from ChEMBL document CHEMBL1201862, “PubChem BioAssay data set” (2004).
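The compound was tested at five concentrations on cells cultured in 96-well plates, with a 48-hour exposure period. GI50 is the concentration that inhibits growth by half.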 Activity calls are given as the source filed them. Rule as the data show it: active = GI50 up to about 1.1 µM and inactive = higher.

Experiments:
Assay in all cases: inhibition of tumour cell growth, NCI panel, 48 h
[1] = test system: SW-620
[2] = test system: UACC-62
[3] = test system: TK-10
[4] = test system: SK-MEL-5
[5] = test system: UACC-257
[6] = test system: SR
[7] = test system: SK-MEL-2
[8] = test system: IGROV-1
[9] = test system: A498
[10] = test system: RXF 393
[11] = test system: HOP-92
[12] = test system: KM12
[13] = test system: SK-OV-3
[14] = test system: HCT-15
[15] = test system: CCRF-CEM
[16] = test system: LOX IMVI

Measured: GI50

O=[N+]([O-])c1cccc(C2=NN(c3ccccc3)C[N+](c3ccc(Br)cc3)=N2)c1
inactive: [1] > 100 µM | [2] > 100 µM | [3] > 100 µM | [4] > 100 µM | [5] > 100 µM | [7] 87.3 µM | [8] 37.3 µM | [9] > 100 µM | [10] > 100 µM | [11] 83.2 µM | [12] 73.5 µM | [13] > 100 µM
> 100 µM: [14]
active: [6] < 0.01 µM

CCCC/C=C/C=C/C=C/CCCCCCCC(=O)OCC(COC(=O)CCCCCCC/C=C/C1C=CC(CCCC)C(C(=O)O)C1C(=O)O)OC(=O)CCCCCCC/C=C/C=C/C=C/CCCC.OCCNCO (stereo not given)
inactive: [15] 11.9 µM | [1] 4.05 µM | [2] 14.8 µM | [3] 19.1 µM | [4] 17.4 µM | [5] 19.1 µM | [7] 15.8 µM | [8] 19.8 µM | [9] 15.3 µM | [11] 23.8 µM | [12] 18.7 µM | [13] 23.7 µM | [16] 13.2 µM
16.2 µM: [14]

COc1ccc(/C=C2\SC(c3ccc(OC)cc3)N(NC(=O)Cc3ccccc3)C2=O)cc1 (stereo not given)
inactive: [15] > 100 µM | [1] > 100 µM | [2] > 100 µM | [3] > 100 µM | [4] > 100 µM | [5] > 100 µM | [6] > 100 µM | [7] > 100 µM | [8] > 100 µM | [9] > 100 µM | [10] 63.7 µM | [11] > 100 µM | [12] > 100 µM | [13] > 100 µM | [16] > 100 µM
> 100 µM: [14]

COc1ccc(/C=N/N=C(\N)NO)cc1F
18.6 µM: [14]
inactive: [15] 33.7 µM | [1] 41.2 µM | [2] 12.9 µM | [3] 43 µM | [4] 5.02 µM | [5] 46.6 µM | [6] 15.9 µM | [7] 13.3 µM | [8] 31.3 µM | [10] 38.2 µM | [11] 22.2 µM | [12] 29.4 µM | [13] 24.5 µM | [16] 10.4 µM

O=C(CC1=Nc2nnc(-c3nnc4n3C(=O)C(CC(=O)c3cccnc3)=N4)n2C1=O)c1cccnc1
inactive: [15] > 100 µM | [1] > 100 µM | [2] > 100 µM | [3] > 100 µM | [4] > 100 µM | [5] > 100 µM | [7] > 100 µM | [8] > 100 µM | [9] > 100 µM | [10] > 100 µM | [11] > 100 µM | [12] > 100 µM | [13] > 100 µM | [16] > 100 µM
> 100 µM: [14]

Cc1nn2c(nc1=O)sc1ccc3ccccc3c12
inactive: [15] > 100 µM | [1] > 100 µM | [2] > 100 µM | [3] > 100 µM | [4] > 100 µM | [5] > 100 µM | [6] > 100 µM | [7] > 100 µM | [8] > 100 µM | [10] > 100 µM | [11] > 100 µM | [12] > 100 µM | [13] > 100 µM | [16] > 100 µM
> 100 µM: [14]

CS(=O)(=O)N(CCC#N)c1ccc(/C=C2\N=C(c3ccccc3Cl)OC2=O)cc1
> 100 µM: [14]
inactive: [15] > 100 µM | [1] > 100 µM | [2] > 100 µM | [3] > 100 µM | [4] > 100 µM | [5] > 100 µM | [7] > 100 µM | [8] > 100 µM | [9] > 100 µM | [10] > 100 µM | [12] > 100 µM | [13] > 100 µM | [16] > 100 µM

O=C1/C(=C/c2ccccc2Cl)COc2ccccc21
inactive: [15] 4.73 µM | [1] 5.73 µM | [3] 13.8 µM | [5] 15.1 µM | [7] 15.5 µM | [8] 18.1 µM | [9] 16.6 µM | [10] 15.5 µM | [11] 15.1 µM | [12] 10.8 µM | [13] 32.6 µM | [16] 15.3 µM

C[C@@]12CCC(=O)c3coc(c31)C(=O)c1cc3c(cc12)C(=O)C=CC3=O [HELENAQUINONE]
17.3 µM: [14]
inactive: [1] 19.1 µM | [2] 15.5 µM | [3] 31 µM | [4] 15.1 µM | [5] 11.6 µM | [6] 30.1 µM | [7] 23.9 µM | [8] 25.9 µM | [9] > 100 µM | [10] 21.2 µM | [11] 6.93 µM | [12] 24.7 µM | [13] > 100 µM | [16] 8.59 µM
